≈ marks a conversion by molar mass, not a printed value.
Assays:
[1] = tested on: Mycobacteroides chelonae; assay: Antimycobacterial activity against Mycobacterium chelonae ATCC 35752 in 7H9 medium after 3 days and 4 hrs after adding resazurin dye/Tween 80 by Microplate Alamar Blue assay; format: functional
[2] = tested on: Staphylococcus aureus; assay: Antimicrobial activity against Staphylococcus aureus by broth microdilution assay; format: functional
[3] = tested on: Mycobacterium tuberculosis; assay: Antitubercular activity against Mycobacterium tuberculosis H37Rv ATCC 27294 in 7H12 medium after 7 days by Microplate Alamar Blue assay; format: functional; conditions: H37Rv ATCC 27294, 168 h
[4] = tested on: Mycobacterium tuberculosis; assay: Antitubercular activity against Mycobacterium tuberculosis H37Rv transfected with pFCA-luxAB in 7H12 medium after 10 days by low-oxygen recovery assay; format: functional; conditions: 240 h
[5] = tested on: Candida albicans; assay: Antimicrobial activity against Candida albicans by broth microdilution assay; format: functional
[6] = tested on: Vero; assay: Cytotoxicity against African green monkey Vero cells assessed as cell viability after 72 hrs by CellTiter 96 assay; format: cell-based; conditions: Chlorocebus sabaeus
[7] = tested on: Mycobacterium tuberculosis; assay: Antitubercular activity against Mycobacterium tuberculosis H37Rv ATCC 27294 in glycerol-alanine-salts medium after 7 days by Microplate Alamar Blue assay; format: functional; conditions: H37Rv ATCC 27294, 168 h
[8] = tested on: Mycobacterium kansasii; assay: Antimycobacterial activity against Mycobacterium kansasii ATCC 12478 in 7H9 medium after 6 days and 18 hrs after adding resazurin dye/Tween 80 by Microplate Alamar Blue assay; format: functional
[9] = tested on: Mycobacteroides abscessus; assay: Antimycobacterial activity against Mycobacterium abscessus ATCC 19977 in 7H9 medium after 3 days and 4 hrs after adding resazurin dye/Tween 80 by Microplate Alamar Blue assay; format: functional
[10] = tested on: Mycobacterium marinum; assay: Antimycobacterial activity against Mycobacterium marinum ATCC 927 in 7H9 medium after 5 days and 6 hrs after adding resazurin dye/Tween 80 by Microplate Alamar Blue assay; format: functional
[11] = tested on: Mycobacterium avium; assay: Antimycobacterial activity against Mycobacterium avium ATCC 15769 in 7H9 medium after 6 days and 18 hrs after adding resazurin dye/Tween 80 by Microplate Alamar Blue assay; format: functional
[12] = tested on: Mycolicibacterium smegmatis; assay: Antimycobacterial activity against Mycobacterium smegmatis by broth microdilution assay; format: functional
[13] = tested on: Escherichia coli; assay: Antimicrobial activity against Escherichia coli by broth microdilution assay; format: functional

## Cc1cc(C)n2nc(C(=O)NCc3ccccc3)nc2n1
[1]
  MIC: > 128 µM
[2]
  MIC: > 128 µM
[3]
  MIC90: > 128 µM
[4]
  MIC90: > 128 µM
[5]
  MIC: > 128 µM
[6]
  IC50: > 128 µM
[7]
  MIC90: 126 µM
[8]
  MIC: > 128 µM
[9]
  MIC: > 128 µM
[10]
  MIC: > 128 µM
[11]
  MIC: > 128 µM
[12]
  MIC: > 128 µM
[13]
  MIC: > 128 µM

## Cc1cc2nc(C)c(C(=O)OCc3ccccc3)n2c(C)n1
[3]
  MIC90: 1.1 µM (≈ 0.325 µg/mL)
[7]
  MIC90: 1.1 µM

## Cc1ccc2nc(C)c(C(=O)NCc3ccccc3)n2c1
[1]
  MIC: 94 µM (≈ 26.3 µg/mL)
[2]
  MIC: > 128 µM
[3]
  MIC90: 0.49 µM (≈ 0.137 µg/mL)
[4]
  MIC90: > 128 µM
[5]
  MIC: > 128 µM
[6]
  IC50: > 128 µM
[7]
  MIC90: 0.11 µM
[8]
  MIC: 4 µM (≈ 1.12 µg/mL)
[9]
  MIC: > 128 µM
[10]
  MIC: > 128 µM
[11]
  MIC: 15.7 µM (≈ 4.39 µg/mL)
[12]
  MIC: > 128 µM
[13]
  MIC: > 128 µM

## Cc1ccc2nc(C)c(C(=O)OCc3ccccc3)n2c1
[3]
  MIC90: 0.004 µM (≈ 0.00112 µg/mL)
[7]
  MIC90: 0.004 µM

## Cc1cnc2nc(C)c(C(=O)NCc3ccccc3)n2c1
[1]
  MIC: > 128 µM
[2]
  MIC: > 128 µM
[3]
  MIC90: 6.95 µM (≈ 1.95 µg/mL)
[4]
  MIC90: > 128 µM
[5]
  MIC: > 128 µM
[6]
  IC50: > 128 µM
[7]
  MIC90: 1.27 µM
[8]
  MIC: 18.7 µM (≈ 5.24 µg/mL)
[9]
  MIC: > 128 µM
[10]
  MIC: > 128 µM
[11]
  MIC: 122 µM (≈ 34.2 µg/mL)
[12]
  MIC: > 128 µM
[13]
  MIC: > 128 µM

## Cc1ccc2nc(C)c(C(=O)NCc3ccccc3)n2n1
[1]
  MIC: > 128 µM
[2]
  MIC: > 128 µM
[3]
  MIC90: > 128 µM
[4]
  MIC90: > 128 µM
[5]
  MIC: > 128 µM
[6]
  IC50: 24.7 µM
[7]
  MIC90: 63.8 µM
[8]
  MIC: > 128 µM
[9]
  MIC: > 128 µM
[10]
  MIC: > 128 µM
[11]
  MIC: > 128 µM
[12]
  MIC: > 128 µM
[13]
  MIC: > 128 µM

## Cc1ccc2c(C(=O)NCc3ccccc3)c(C)[nH]c2c1
[1]
  MIC: > 128 µM
[2]
  MIC: > 128 µM
[3]
  MIC90: > 128 µM
[4]
  MIC90: > 128 µM
[5]
  MIC: > 128 µM
[6]
  IC50: > 128 µM
[7]
  MIC90: 43.8 µM
[8]
  MIC: > 128 µM
[9]
  MIC: > 128 µM
[10]
  MIC: > 128 µM
[11]
  MIC: > 128 µM
[12]
  MIC: > 128 µM
[13]
  MIC: > 128 µM

## Cc1ccc2c(C(=O)NCc3ccccc3)n[nH]c2c1
[1]
  MIC: > 128 µM
[2]
  MIC: > 128 µM
[3]
  MIC90: > 128 µM
[4]
  MIC90: > 128 µM
[5]
  MIC: > 128 µM
[6]
  IC50: > 128 µM
[7]
  MIC90: 40.8 µM
[8]
  MIC: > 128 µM
[9]
  MIC: > 128 µM
[10]
  MIC: > 128 µM
[11]
  MIC: > 128 µM
[12]
  MIC: > 128 µM
[13]
  MIC: > 128 µM

## Cc1ccn2c(C(=O)NCc3ccccc3)nnc2c1
[1]
  MIC: > 128 µM
[2]
  MIC: > 128 µM
[3]
  MIC90: > 128 µM
[4]
  MIC90: > 128 µM
[5]
  MIC: > 128 µM
[6]
  IC50: > 128 µM
[7]
  MIC90: 101 µM
[8]
  MIC: > 128 µM
[9]
  MIC: > 128 µM
[10]
  MIC: > 128 µM
[11]
  MIC: > 128 µM
[12]
  MIC: > 128 µM
[13]
  MIC: > 128 µM

## Cc1ccn2c(C)c(C(=O)NCc3ccccc3)nc2c1
[1]
  MIC: > 128 µM
[2]
  MIC: > 128 µM
[3]
  MIC90: > 128 µM
[4]
  MIC90: > 128 µM
[5]
  MIC: > 128 µM
[6]
  IC50: > 128 µM
[7]
  MIC90: 70 µM
[8]
  MIC: > 128 µM
[9]
  MIC: > 128 µM
[10]
  MIC: > 128 µM
[11]
  MIC: > 128 µM
[12]
  MIC: > 128 µM
[13]
  MIC: > 128 µM

## Cc1cnc2nc(C)c(C(=O)OCc3ccccc3)n2c1
[3]
  MIC90: 1.4 µM (≈ 0.394 µg/mL)
[7]
  MIC90: 1.4 µM

## Cc1cn2c(C(=O)OCc3ccccc3)c(C)nc2cn1
[3]
  MIC90: 2.3 µM (≈ 0.647 µg/mL)
[7]
  MIC90: 2.3 µM

## NNC(=O)c1ccncc1 [ISONIAZID]
[1]
  MIC: > 500 µM
[8]
  MIC: 9.1 µM (≈ 1.25 µg/mL)
[9]
  MIC: > 500 µM
[10]
  MIC: > 1000 µM
[11]
  MIC: > 500 µM

## COc1c(N2C[C@@H]3CCCN[C@@H]3C2)c(F)cc2c(=O)c(C(=O)O)cn(C3CC3)c12 [MOXIFLOXACIN]
[1]
  MIC: 0.24 µM (≈ 0.0963 µg/mL)
[8]
  MIC: 0.12 µM (≈ 0.0482 µg/mL)
[9]
  MIC: 22.4 µM (≈ 8.99 µg/mL)
[10]
  MIC: 12.4 µM (≈ 4.98 µg/mL)
[11]
  MIC: 6.1 µM (≈ 2.45 µg/mL)

## O=[N+]([O-])c1cn2c(n1)OC[C@@H](OCc1ccc(OC(F)(F)F)cc1)C2 [PRETOMANID]
[3]
  MIC90: 0.09 µM (≈ 0.0323 µg/mL)
[4]
  MIC90: 4.9 µM (≈ 1.76 µg/mL)
[6]
  IC50: > 128 µM
[7]
  MIC90: 0.12 µM

## CO[C@H]1/C=C/O[C@@]2(C)Oc3c(C)c(O)c4c(O)c(c(/C=N/N5CCN(C)CC5)c(O)c4c3C2=O)NC(=O)/C(C)=C\C=C\[C@H](C)[C@H](O)[C@@H](C)[C@@H](O)[C@@H](C)[C@H](OC(C)=O)[C@@H]1C [RIFAMPIN]
[1]
  MIC: > 100 µM
[3]
  MIC90: 0.06 µM (≈ 0.0494 µg/mL)
[7]
  MIC90: 0.11 µM
[8]
  MIC: 0.03 µM (≈ 0.0247 µg/mL)
[9]
  MIC: 162 µM (≈ 133 µg/mL)
[10]
  MIC: 1.2 µM (≈ 0.988 µg/mL)
[11]
  MIC: < 0.78 µM
